From patent US8901301B2, “Pyrrolo[2,3-]pyridine kinase inhibitors” (Plexxikon Inc., priority 2009, dated 2014)

Legend:
[1] = target: T1, Tec (Homo sapiens, UniProt P42680); assay: Biochemical inhibitory activity, other protein kinases: Tec; settings: for Kinase having IC50 of >1 μM: listing of the kinase means IC50 >1 μM; for Kinase having IC50 of <1 μM: listing of the kinase means IC50 <1 μM
T1 sequence (P42680 1-631): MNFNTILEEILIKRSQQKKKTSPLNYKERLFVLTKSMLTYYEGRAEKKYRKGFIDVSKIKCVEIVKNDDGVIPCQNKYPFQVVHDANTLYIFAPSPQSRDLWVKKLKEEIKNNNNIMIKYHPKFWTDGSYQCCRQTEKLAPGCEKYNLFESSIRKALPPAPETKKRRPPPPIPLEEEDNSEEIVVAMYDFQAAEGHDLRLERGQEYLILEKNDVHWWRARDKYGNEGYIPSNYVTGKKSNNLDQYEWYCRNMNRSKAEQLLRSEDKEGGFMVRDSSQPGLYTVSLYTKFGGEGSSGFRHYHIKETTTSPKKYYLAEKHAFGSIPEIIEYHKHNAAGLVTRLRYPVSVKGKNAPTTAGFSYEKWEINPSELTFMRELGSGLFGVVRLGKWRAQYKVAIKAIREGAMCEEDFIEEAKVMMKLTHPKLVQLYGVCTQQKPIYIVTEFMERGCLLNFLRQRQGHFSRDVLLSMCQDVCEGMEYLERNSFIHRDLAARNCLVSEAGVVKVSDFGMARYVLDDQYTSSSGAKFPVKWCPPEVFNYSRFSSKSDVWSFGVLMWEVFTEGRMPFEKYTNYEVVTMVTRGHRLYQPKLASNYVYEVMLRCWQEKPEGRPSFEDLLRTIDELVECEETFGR

[2] = test system: Raf kinases; assay: Biochemical assay, Raf kinases as well as other kinases
Method: Assays for biochemical and cell based activity are known in the art, for example, as described in PCT publication WO 2007/002433, the disclosure of which is hereby incorporated by reference as it relates to such assays. For example, the biochemical activity IC50 values are determined with respect to inhibition of A-Raf kinase activity, B-Raf kinase activity, c-Raf-1 kinase activity, or B-Raf V600E kinase activity, where inhibition of phosphorylation of a peptide substrate is measured as a function of compound concentration. Compounds to be tested are diluted in dimethyl sulfoxide to a concentration of 0.1 mM. These are serially diluted 15 μL into 30 μL of dimethyl sulfoxide seven times in 96 well plates for a total of 8 dilution points, and for each dilution point 1 μL is added to a well of an assay plate. Plates are prepared such that each well in a 384 well plate contains 1 μL of compound in 10 μL volume with 0.1 ng Raf enzyme (i.e. any of A-Raf, B-Raf, c-Raf-1 or B-Raf V600E, Upstate Biotechnology or prepared by methods known to one of skill in the art), 50 mM HEPES, pH 7.0, 50 mM NaCl, 2 mM MgCl2, 1 mM MnCl2, 0.01% Tween-20, 1 mM DTT, and 100 nM biotin-MEK1 as substrate. The reaction is started with addition of 10 μL of 200 μM ATP (i.e. final 100 μM ATP). After incubation of the kinase reaction for 45 minutes at room temperature, 5 μL/well of Stop Solution is added (25 mM Hepes pH 7.5, 100 mM EDTA, 0.01% BSA with donor beads (Streptavidin coated beads, Perkin Elmer), acceptor beads (Protein A coated, Perkin Elmer), and anti phosphor MEK1/2 antibody (CellSignal), each at final concentration 10 μg/mL). The plates are incubated for 3 hours at room temperature and read on Envision reader (Perkin Elmer). Phosphorylation of Mek1 results in binding of the anti-phosphor-MEK1/2 antibody and association of the donor and acceptor beads such that signal correlates with kinase activity. The signal vs. compound concentration is used to determine the IC50.

[3] = target: T2, CYP1A2 (Homo sapiens, UniProt P05177); assay: CYP inhibition (fluorescent substrate), CYP1A2; assay type: in vitro ADME; settings: substrate CEC; read-out: Cyp IC50 (μM) 1A2
T2 construct: purchased BD Biosciences
T2 sequence (P05177 1-516): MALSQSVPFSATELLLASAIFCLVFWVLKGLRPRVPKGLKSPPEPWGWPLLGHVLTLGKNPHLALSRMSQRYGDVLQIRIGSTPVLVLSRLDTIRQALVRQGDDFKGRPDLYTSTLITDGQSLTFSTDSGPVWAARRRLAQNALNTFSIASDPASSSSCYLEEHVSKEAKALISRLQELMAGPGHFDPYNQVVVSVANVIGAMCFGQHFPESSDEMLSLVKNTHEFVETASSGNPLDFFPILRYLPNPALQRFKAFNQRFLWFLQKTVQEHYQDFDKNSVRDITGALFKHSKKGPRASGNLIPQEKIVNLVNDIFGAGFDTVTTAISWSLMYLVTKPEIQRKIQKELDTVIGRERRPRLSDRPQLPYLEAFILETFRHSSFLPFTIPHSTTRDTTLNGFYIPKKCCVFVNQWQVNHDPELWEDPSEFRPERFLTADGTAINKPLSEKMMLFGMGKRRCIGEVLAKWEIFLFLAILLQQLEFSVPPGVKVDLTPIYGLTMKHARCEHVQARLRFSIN
Method: CYP (Cytochrome P450) enzymes are the major drug metabolizing enzymes present in the liver. The inhibition of CYP enzyme activity (IC50) for each of CYP1A2, CYP2C19, CYP2C9, CYP2D6, CYP3A4(BFC) and CYP3A4(BQ) is determined for compounds, where inhibition of metabolism of a known substrate leads to a decrease in the fluorescence of the metabolized product. The fluorescence of the product is monitored as a function of compound concentration. Compounds are dissolved in dimethyl sulfoxide to a concentration of 100 mM. These are diluted 1 μL into 82 μL of acetonitrile. An 11 μL aliquot of this solution is then added to 204 μL of cofactor mix (1.3% NADPH Regeneration system Solution A, 1.04% NADPH Regeneration system Solution B from BD Biosciences, 5% acetonitrile and 0.05% dimethyl sulfoxide). These are then serially diluted 1:1 (160 μL to 160 μL co-factor mix) for a total of 10 points. A 10 μL aliquot of this final mixture is dispensed into 384 well assay plates and incubated for 10 minutes at 37° C. […] Assay plates are incubated at 37° C. (CYP1A2-15 min; CYP2C9-45 min; CYP2C19, 2D6 and 3A4-30 min) and read in a Tecan Safire 2 plate reader (CYP1A2, 2C19 and 3A4 409 ex/460 em; CYP2C9 and 2D6 409 ex/530 em). The signal versus compound concentration is used to determine the IC50. The enzymes and substrates for this assay are obtained from BD Biosciences.

| SMILES | Kinase having IC50 of >1 μM [1] | IC50 [3] | Kinase having IC50 of <1 μM [1] | Selectivity of inhibitory activity, Raf kinases versus other kinases [2] |
| --- | --- | --- | --- | --- |
| N#Cc1cnc2[nH]cc(C(=O)c3c(F)ccc(NS(=O)(=O)c4cc(F)ccc4F)c3F)c2c1 [Compound P-0004, N-[3-(5-cyano-1H-pyrrolo[2,3-b]pyridine-3-carbonyl)-2,4-difluoro-phenyl]-2,5-difluoro-benzenesulfonamide] | Tec | > 10 µM | – | selective activity to the Raf kinases |
| CCCS(=O)(=O)Nc1cccc(C(=O)c2c[nH]c3ncc(C#N)cc23)c1F [Compound P-0003, propane-1-sulfonic acid [3-(5-cyano-1H-pyrrolo[2,3-b]pyridine-3-carbonyl)-2-fluoro-phenyl]-amide] | – | > 10 µM | – | selective activity to the Raf kinases |
| CCCS(=O)(=O)Nc1ccc(F)c(C(=O)c2c[nH]c3ncc(C#N)cc23)c1F [Compound P-0002, propane-1-sulfonic acid [3-(5-cyano-1H-pyrrolo[2,3-b]pyridine-3-carbonyl)-2,4-difluoro-phenyl]-amide] | Tec | > 10 µM | – | selective activity to the Raf kinases |
| CCCS(=O)(=O)Nc1ccc(F)c(C(=O)c2c[nH]c3ncc(-c4cnc(OC)nc4)cc23)c1F [Compound P-0001, propane-1-sulfonic acid {2,4-difluoro-3-[5-(2-methoxy-pyrimidin-5-yl)-1H-pyrrolo[2,3-b]pyridine-3-carbonyl]-phenyl}-amide] | – | > 10 µM | Tec | selective activity to the Raf kinases |

The next lines start with results.

| Kinase having IC50 of >1 μM [1] | IC50 [3] | Kinase having IC50 of <1 μM [1] | SMILES | Selectivity of inhibitory activity, Raf kinases versus other kinases [2] |
| --- | --- | --- | --- | --- |
| Tec | > 10 µM | – | N#Cc1cnc2[nH]cc(C(=O)c3c(F)ccc(NS(=O)(=O)c4cccc(F)c4)c3F)c2c1 [Compound P-0005, N-[3-(5-cyano-1H-pyrrolo[2,3-b]pyridine-3-carbonyl)-2,4-difluoro-phenyl]-3-fluoro-benzenesulfonamide] | selective activity to the Raf kinases |
| – | > 10 µM | Tec | N#Cc1cnc2[nH]cc(C(=O)c3c(F)ccc(NS(=O)(=O)N4CCCC4)c3F)c2c1 [Compound P-0006, pyrrolidine-1-sulfonic acid [3-(5-cyano-1H-pyrrolo[2,3-b]pyridine-3-carbonyl)-2,4-difluoro-phenyl]-amide] | selective activity to the Raf kinases |
| Tec | > 10 µM | – | CN(C)S(=O)(=O)Nc1ccc(F)c(C(=O)c2c[nH]c3ncc(C#N)cc23)c1F [Compound P-0007, N,N-dimethylamino-sulfonic acid [3-(5-cyano-1H-pyrrolo[2,3-b]pyridine-3-carbonyl)-2,4-difluoro-phenyl]-amide] | selective activity to the Raf kinases |
